Data from the supplement of paper PMC10307832.

Columns and labels:
[1] = compound: C1=CC=C2C(=C1)N=C(S2)C(C#N)C3=NC(=NC=C3)NCCC4=CN=CC=C4; experiment: relative viability (nuclei count vs DMSO), 5 days (fraction); higher = more cells survive
Summary of the method: (§1)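 Viability was defined as treated-well nuclei divided by vehicle-well nuclei, with the median taken over replicate plates. Cells from lung cancer lines sat overnight at 37 °C in 1536-well plates, received five √10-spaced library-drug doses by pinning on vehicle-anchored plates, and grew 5 days without medium change before one-step fixation, permeabilisation and Hoechst staining, 4× imaging and MetaXpress nuclear counts. Only plates with control CV under 25% and at least one doubling were kept.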

NVP-TAE684 = compound: COc1cc(N2CCC(N3CCN(C)CC3)CC2)ccc1Nc1ncc(Cl)c(Nc2ccccc2S(=O)(=O)C(C)C)n1 [NVP-TAE684]; experiment: as above
Summary of the method: as §1

Row | Cell Line | relative viability ([1]; 0.005 µM) | relative viability ([1]; 0.01581 µM) | relative viability ([1]; 0.05 µM) | relative viability ([1]; 0.1581 µM) | relative viability ([1]; 0.5 µM) | relative viability (NVP-TAE684; 0.2 µM) | relative viability (NVP-TAE684; 0.6325 µM) | relative viability (NVP-TAE684; 2 µM)
1 | 201T | 0.963 | 0.876 | 1.01 | 1.03 | 0.89 | 1.05 | 0.958 | 0.875
2 | A549 | 0.914 | 1.03 | 0.969 | 1.05 | 0.901 | 1.1 | 0.951 | 0.585
3 | A-427 | 0.993 | 0.875 | 0.919 | 1.15 | 0.95 | 1.11 | 0.847 | 0.863
4 | ABC-1 | 0.974 | 0.826 | 1.08 | 1.07 | 0.835 | 0.969 | 0.624 | 0.537
5 | BEN | 0.864 | 0.908 | 0.97 | 1.04 | 1.08 | 0.933 | 0.73 | 0.876
6 | CAL-12T | 1 | 0.912 | 0.962 | 1.07 | 0.798 | 0.904 | 0.956 | 0.466
7 | COR-L23 | 0.944 | 1.13 | 1.05 | 1.2 | 0.884 | 0.972 | 1 | 0.481
8 | COR-L 105 | 0.8 | 0.711 | 0.774 | 0.941 | 0.768 | 1.03 | 0.68 | 0.452
9 | Calu-6 | 0.999 | 0.983 | 0.978 | 1.12 | 0.912 | 0.937 | 0.992 | 0.758
10 | ChaGo-K-1 | 0.984 | 0.929 | 0.99 | 1.05 | 0.939 | 0.98 | 0.878 | 0.843
11 | EBC-1 | 1.02 | 1.15 | 0.803 | 1.06 | 0.858 | 0.836 | 1.03 | 0.744
12 | EKVX | 1.08 | 0.939 | 0.947 | 1.04 | 0.952 | 0.862 | 0.873 | 0.719
13 | EMC-BAC-2 | 1.09 | 0.976 | 0.952 | 1.04 | 0.97 | 0.966 | 0.894 | 0.679
14 | EPLC-272H | 0.915 | 0.882 | 0.958 | 1.11 | 0.895 | 0.9 | 0.667 | 0.688
15 | H3255 | 1.04 | 0.922 | 0.964 | 1.06 | 0.981 | 0.947 | 0.859 | 0.754
16 | HARA | 1.1 | 0.769 | 0.994 | 1.09 | 0.93 |  | 0.838 | 0.667
17 | HCC-15 | 0.96 | 0.989 | 1.03 | 1.12 | 0.919 | 0.913 | 0.973 | 0.808
18 | HCC-44 | 0.999 | 1.03 | 1.04 | 1.05 | 1 | 1.09 | 0.969 | 0.749
19 | HCC-78 | 1.08 | 0.92 | 1.07 | 1.07 | 0.996 | 0.824 | 0.658 | 0.495
20 | HCC-366 | 0.883 | 1.06 | 0.995 | 1.05 | 1.05 | 1.01 | 0.979 | 1.07

Row | Cell Line | relative viability ([1]; 0.005 µM) | relative viability ([1]; 0.01581 µM) | relative viability ([1]; 0.05 µM) | relative viability ([1]; 0.1581 µM) | relative viability ([1]; 0.5 µM) | relative viability (NVP-TAE684; 0.2 µM) | relative viability (NVP-TAE684; 0.6325 µM) | relative viability (NVP-TAE684; 2 µM)
21 | HCC-827 | 1.07 | 1.1 | 1.01 | 1.11 | 1.05 | 1.09 | 1.02 | 1.04
22 | HOP-62 | 0.951 | 1.08 | 1.01 | 1.24 | 1.07 |  | 1 | 1.04
23 | IA-LM | 0.834 | 1.19 | 0.997 | 1.02 | 0.762 | 0.712 | 0.885 | 0.75
24 | LC-2-ad | 0.923 | 0.9 | 0.999 | 1.11 | 0.961 | 0.975 | 0.848 | 0.654
25 | LCLC-97TM1 | 0.944 | 0.991 | 0.974 | 1.13 | 1.08 | 0.897 | 0.735 | 0.471
26 | LCLC-103H | 0.928 | 0.952 | 0.955 | 1.07 | 0.947 | 1.08 | 0.956 | 0.938
27 | LK-2 | 0.753 | 1.11 | 0.97 | 1.21 | 1.07 | 1.09 | 0.924 | 0.356
28 | LOU-NH91 | 0.954 | 0.875 | 0.815 | 1.02 | 0.916 | 0.966 | 0.833 | 0.703
29 | LU99A | 0.779 | 0.995 | 0.877 | 1.04 | 0.972 | 0.998 | 0.942 | 0.616
30 | LXF-289 | 0.925 | 1.09 | 0.968 | 1.06 | 0.948 | 1.02 | 1.01 | 0.907
31 | NCI-H23 | 0.691 | 0.941 | 0.967 | 1.24 | 1.02 | 0.989 | 0.796 | 0.538
32 | NCI-H322M | 0.745 | 0.839 | 0.924 | 0.951 | 0.914 | 1.02 | 0.795 | 0.636
33 | NCI-H358 | 0.784 | 0.904 | 0.823 | 1.06 | 0.913 | 0.898 | 0.791 | 0.289
34 | NCI-H441 |  | 1.12 | 1 | 1.27 | 0.871 | 0.898 | 1.15 | 0.587
35 | NCI-H460 | 0.925 | 0.999 | 0.995 | 1.14 | 0.934 | 1.08 | 1.02 | 
36 | NCI-H520 | 0.847 | 0.973 | 0.953 | 0.968 | 0.96 | 0.969 | 0.986 | 0.767
37 | NCI-H522 | 0.958 | 0.795 | 0.761 | 1.11 | 0.878 | 0.953 | 0.874 | 0.923
38 | NCI-H596 | 0.791 | 0.962 | 1.01 | 1.07 | 0.928 | 0.959 | 1.03 | 
39 | NCI-H647 | 0.814 | 0.997 | 0.927 | 1.16 | 0.893 | 0.924 | 1.01 | 0.723
40 | NCI-H650 | 0.86 | 0.782 | 1.04 | 1.14 | 1.02 | 1.01 | 0.662 | 0.622
